These results are taken from patent US20260191821A1, “COMPOSITIONS AND METHODS FOR TREATING NEURODEGENERATIVE DISEASES” (The General Hospital Corporation, priority 2023, published 2026).

SMILES strings stand for the structures. pEC50: −log10 of the molar value. Where two headings read alike, the source gives them in different places.

One series has as its system BV2 microglial cells. Briefly: Microglial Aβ42 uptake/clearance in BV2 microglial cells, measured by Aβ ELISA. The class given is cell-based. As to the method:
Urolithin A was identified as a top-tier enhancer of Aβ clearance by microglia in an unbiased (and biased) screening of natural product compounds. Cellular assay models based on BV2 microglial cells were used to assess the ability of microglia to phagocytose synthetic Aβ42 peptides, a major pathogenic Aβ isoform of Alzheimer's disease Aβ species (microglial uptake/clearance).
The ability of the agents, alone or in combination, to increase microglial Aβ uptake was also assessed (FIG. 9). […] FIGS. 11B-11D and FIGS. 12A-12F show TNFα levels in response to treatment with cat's claw (#134), urolithin A (#144), fisetin (NP-82) and quercetin (NP-162), alone or in various combinations.
On the technique in general: An ELISA detects its analyte on a solid surface through an enzyme-linked reagent.

For another series, the system named is TNFα. In words: TNFα release by LPS-activated BV2 microglial cells, ELISA on conditioned cell media. Type of series: cell-based. Conditions: for TNFα release / LPS-induced microglial pro-inflammatory activation: Example 1, BV2 cells, FIGS. 2, 4B, 5; for TNFα release / LPS-induced microglial pro-inflammatory activation / pEC50: 1 μg/mL LPS for 5 hours; for pEC50: Mus musculus, BV-2, BV2 cells, read-out: EC50 of TNFα reduction. The protocol: Effects of urolithin A and fisetin on the reduction of pro-inflammatory cytokines levels, such as TNFα, were assessed in an unbiased library screening. BV2 microglial cells were converted to a pro-inflammatory activation state by acute treatment with 1 μg/mL of Lipopolysaccharide (LPS) for 5 hours in the presence of a vehicle or urolithin A or fisetin. Effects on inflammation were assessed by measuring levels of a representative pro-inflammatory cytokine, TNFα, via an ELISA assay on the conditioned cell media. FIGS. 2A and 2B show representative results of the dose-response reduction of TNFα after treatment with LPS and urolithin A and fisetin, respectively.
BV2 microglial cells were next treated with 1 μg/mL of LPS for 5 hours in the presence of urolithin A and fisetin at different concentrations, alone or in combination (FIG. 5). Levels of TNFα secreted by the microglial cells into the conditioned cell media were measured using ELISA.
Effects of urolithin A, fisetin, nicotinamide riboside, cat's claw, and quercetin, alone or in combination, on TNFα concentration were assessed (FIGS. 6A-6E and 7A-7C). BV2 microglial cells were converted to a pro-inflammatory activation state by acute treatment with 1 μg/mL of Lipopolysaccharide (LPS) for 5 hours in the presence of a vehicle or nicotinamide riboside (#101), cat's claw (#134), urolithin A (#144), fisetin (NP-82) or quercetin (NP-162), alone or in combination. Effects on inflammation were assessed by measuring levels of TNF&, via an ELISA assay on the conditioned cell media.

For series [1] the following is noted: 500 mg to 1000 mg daily; cited from earlier work.

As for `O=c1oc2cc(O)ccc2c2ccc(O)cc12` [urolithin A, 3,8-dihydroxy-6H-benzo[b,d]pyran-6-one], the “microglial Aβ uptake/clearance” value with BV2 microglial cells (Example 1, BV2 microglial cells, FIG. 1 and FIG. 3) is “increases microglial Aβ uptake/clearance in a dose-dependent manner”. Besides, the pEC50 (as a rule, the negative decadic logarithm of the EC50, by convention in mol/L) in the series with BV2 microglial cells (Mus musculus, BV-2, BV2 microglial cells, synthetic Aβ42 peptides, FIG. 1) was 4.91; in the series with TNFα (FIG. 2A), 4.68. Also, the “TNFα release / LPS-induced microglial pro-inflammatory activation” value in the series with TNFα was “reduce TNFα release by LPS-activated microglia in a dose-dependent manner”. Also, the “reported safety and/or usefulness” value in series [1] is on record as “safe and/or useful”.

As to `O=c1c(O)c(-c2ccc(O)c(O)c2)oc2cc(O)ccc12` [fisetin, 3,3′,4′,7-tetrahydroxyflavone], the “TNFα release / LPS-induced microglial pro-inflammatory activation” value in the series with TNFα is “reduce TNFα release by LPS-activated microglia in a dose-dependent manner”. Also, the negative logarithm of the EC50 (pEC50) in the series with TNFα (FIG. 2B) is 5.10. Further, the “reduction of TNFα levels” value in the series with TNFα (fisetin alone, LPS-treated BV2 microglia cells, FIG. 4B) is “roughly 75%”.
